Measured values from US20220153783A1, “MITOCHONDRIA-TARGETING COMPOUND AND COMPOSITION COMPRISING SAME FOR TREATING OR PREVENTING AGING-RELATED DISEASES” (FUSION BIOTECHNOLOGY CO., LTD., priority 2019, published 2022).
One block for each substance: values may come before it. SH = thiol (–SH) group at the N-terminus

Tests used:
[1] = system: choroidal neovascularization; test: Laser-induced CNV model, fluorescein angiography; format: in vivo, mice; details: two weeks after laser, compared to Eylea control group
Source text: Specifically, the mice were anesthetized by intraperitoneal injection of ketamine hydrochloride and xylazine hydrochloride. By using a diode laser with a wavelength of 810 nm, eight photocoagulation spots, each having the size of 75 μm, the intensity of 250 mW, and the time of 50 ms, were made in concentric circles among the main retinal vessels around the optic nerve. The rupture of the Bruck's membrane was confirmed by identifying that cavitation bubbles had been formed in the choroid. Immediately after laser irradiation, the experimental groups treated with 10 μM, 50 μM, and 100 μM of SP-101, and phosphate buffered saline and Eylea, which were used as control groups, were injected into the vitreous cavity. Two weeks after laser irradiation, fluorescein angiography was performed thereon using a confocal scanning laser fundus camera. After fluorescein-dextran was rapidly injected intravenously, images thereof were taken at the beginning (2 min) and late (10 min).

[2] = system: senescent cells; test: SA-b-galactosidase staining of senescent cells; format: cell-based; details: 30 μM SP-101 versus untreated control, optical microscope
Protocol: Specifically, SA-b-galactosidase staining was used. Cells that were not treated with anything were used as a control, and those treated with 30 μM of SP-101 were used as an experimental group. SA-gal staining was performed using a kit (Biovision, K320-250) according to the manufacturer's instructions. Senescent cells were identified as blue-stained cells under an optical microscope.

[3] = Macromolecular formation of SP-101 by ROS (TEM/SEM); format: physicochemical; details: 1 mM and 10 mM in water, stirred 24 hours
Protocol: Specifically, 1 mM SP-101 and 10 mM SP-101 were each dissolved in water and stirred for 24 hours. A drop of an aqueous solution of SP-101 was placed on a formvar/carbon-coated copper grid and evaporated under atmospheric conditions. The sample was stained with a 2 wt % uranyl acetate solution, evaporated for 1 minute, and then the excess solution was removed therefrom by using a filter paper.

[4] = system: senescent cells; test: Cytotoxicity of SP-101, MTT cell viability; format: cell-based; details: 5 μM to 30 μM SP-101, 24 hours
Protocol: (§1) Specifically, the cell viability of IMR90 and senescent cells against SP-101 was evaluated by identifying the reduction of 3-(4,5-dimethylthiazol-2-yl)-2,5-diphenyltetrazolium bromide (MTT) to insoluble formazan. Cells were seeded at a density of 5×10^3 cells per well in a 96-well plate and cultured overnight, followed by treatment with different concentrations of SP-101 in DMEM medium containing 10% FBS and cultured for 24 hours. Then, the cells were cultured with MTT, and then the crystallized formazan was quantified by measuring the absorbance thereof at 595 nm by using an ELISA plate reader. Results were expressed as percent viability=[(A550 (treated cells)−background value)/(A550 (untreated cells)−background value)]×100.

[5] = system: senescent cells; test: Cytotoxicity of SH-KLAKLAKRGD, MTT cell viability; format: cell-based; details: different concentrations, 24 hours
Protocol: as §1, with “SH-KLAKLAKRGD” for “SP-101”, “MTT” for “3-(4,5-dimethylthiazol-2-yl)-2,5-diphenyltetrazolium bromide (MTT)”

[6] = Self-assembly of SH-KLAKLAKRGD (TEM, size); format: physicochemical; details: dissolved in water (1 mM and 10 mM), stirred 24 hours
Protocol: SH-KLAKLAKRGD (1 mM and 10 mM) was dissolved in water and stirred for 24 hours. A drop of SH-KLAKLAKRGD aqueous solution was placed on a formvar/carbon coated copper grid and allowed to evaporate at ambient conditions. The sample was stained with 2 wt % uranyl acetate solution and evaporated for 1 minute, and the excess solution was removed with filter paper. The specimen was observed using a JEM-1400 TEM operating at 120 kV.

macromolecule formation by oxidation [3]: oxidized to form a macromolecule
Substance: (3-((3-(3,5-dimercaptobenzamido)propyl)dimethylammonium)propyl)triphenylphosphonium [SP-101]
volume of choroidal neovascularization ([1]; 10 μM SP-101 injected into the vitreous cavity): decreased by about twice compared to the Eylea control group
volume of choroidal neovascularization ([1]; 100 μM SP-101 injected into the vitreous cavity): decreased by about twice compared to the Eylea control group
reduction of senescent cells (blue-stained cells) [2]: senescent cells were reduced
killing of senescent cells versus normal cells IMR90 [4]: more senescent cells were killed than normal cells

Substance: SH-KLAKLAKRGD: mitochondria-targeting compound prepared by solid phase peptide synthesis; NH2-KLAKLAKRGD reacted with disulfide 4, structure in FIG. 10 ({SH}-KLAKLAKRGD-NH2; also: N-terminal thiol group from reaction with disulfide 4)
cell viability in senescent cells versus IMR90 normal cell [5]: cell viability in senescent cells was lower than that in IMR90
size of the polymerized SH-KLAKLAKRGD [6]: 350±100 nm
macromolecule formation (TEM image) ([6]; TEM): showed a macromolecule in which peptides were polymerized
